ChEMBL document CHEMBL3132850, “5-Nor carbocyclic nucleosides: unusual nonnucleoside inhibitors of HIV-1 reverse transcriptase” (Medchemcomm, 2013)
The source made the active and inactive calls. No cut-off for these calls is given here.

Experiments:
[1] = Cytotoxicity against human CEM cells after 3 days; assay type: cell-based; details: CEM cells (CCRF-CEM)
[2] = biological target: Human immunodeficiency virus type 1 reverse transcriptase (Human immunodeficiency virus 1, UniProt Q72547); assay: (§1) Inhibition of HIV1 wild type reverse transcriptase expressed in Escherichia coli BL21 (DE3) using [alpha-32P]dATP after 30 mins by liquid scintillation counting
[3] = test system: Human immunodeficiency virus 1; assay: Antiviral activity against HIV1 3B infected in human CEM cells assessed as reduction of giant cell formation after 4 days by microscopic analysis; assay type: functional, organism-based; details: Human immunodeficiency virus 1, 3B, CCRF-CEM, 96 h
[4] = test system: Punta Toro virus; assay: Antiviral activity against Punta Toro virus; assay type: functional, organism-based
[5] = biological target: Human immunodeficiency virus type 1 reverse transcriptase (Human immunodeficiency virus 1, UniProt Q72547, Y181C); assay: Inhibition of HIV1 reverse transcriptase Y181C mutant expressed in Escherichia coli BL21 (DE3) using [alpha-32P]dATP after 30 mins by liquid scintillation counting
[6] = test system: Influenza A virus; assay: Antiviral activity against Influenza A virus H1N1; assay type: functional, organism-based
[7] = test system: Coxsackievirus B4; assay: Antiviral activity against Coxsackievirus B4; assay type: functional, organism-based
[8] = biological target: Human immunodeficiency virus type 1 reverse transcriptase (Human immunodeficiency virus 1, UniProt Q72547, K103N); assay: Inhibition of HIV1 reverse transcriptase K103N mutant expressed in Escherichia coli BL21 (DE3) using [alpha-32P]dATP after 30 mins by liquid scintillation counting
[9] = biological target: Human immunodeficiency virus type 1 reverse transcriptase (Human immunodeficiency virus 1, UniProt Q72547, V106A); assay: Inhibition of HIV1 reverse transcriptase V106A mutant expressed in Escherichia coli BL21 (DE3) using [alpha-32P]dATP after 30 mins by liquid scintillation counting
[10] = test system: Vesicular stomatitis virus; assay: Antiviral activity against Vesicular stomatitis virus; assay type: functional, organism-based
[11] = test system: Sindbis virus; assay: Antiviral activity against Sindbis virus; assay type: functional, organism-based
[12] = test system: Feline coronavirus; assay: Antiviral activity against Feline coronavirus; assay type: functional, organism-based
[13] = test system: Mammalian orthoreovirus 1; assay: Antiviral activity against Reovirus-1; assay type: functional, organism-based
[14] = test system: Human alphaherpesvirus 1; assay: Antiviral activity against Herpes simplex virus-1 KOS; assay type: functional, organism-based
[15] = biological target: Human immunodeficiency virus type 1 reverse transcriptase (Human immunodeficiency virus 1, UniProt Q72547, L100I); assay: Inhibition of HIV1 reverse transcriptase L100I mutant expressed in Escherichia coli BL21 (DE3) using [alpha-32P]dATP after 30 mins by liquid scintillation counting
[16] = biological target: Human immunodeficiency virus type 1 reverse transcriptase (Human immunodeficiency virus 1, UniProt Q72547, K103N/Y181C); assay: Inhibition of HIV1 reverse transcriptase K103N/Y181C mutant expressed in Escherichia coli BL21 (DE3) using [alpha-32P]dATP after 30 mins by liquid scintillation counting
[17] = test system: Human respirovirus 3; assay: Antiviral activity against Parainfluenza virus 3; assay type: functional, organism-based
[18] = test system: Vaccinia virus; assay: Antiviral activity against Vaccinia virus; assay type: functional, organism-based; details: Orthopoxvirus vaccinia
[19] = test system: Respiratory syncytial virus; assay: Antiviral activity against Respiratory syncytial virus; assay type: functional, organism-based
[20] = test system: Human alphaherpesvirus 2; assay: Antiviral activity against Herpes simplex virus-2 G; assay type: functional, organism-based; details: strain G
[21] = test system: Influenza A virus H3N2; assay: Antiviral activity against Influenza A virus H3N2; assay type: functional, organism-based
[22] = test system: Influenza B virus; assay: Antiviral activity against Influenza B virus; assay type: functional, organism-based
[23] = biological target: Human immunodeficiency virus type 1 reverse transcriptase (Human immunodeficiency virus 1, UniProt Q72547, G190A); assay: Inhibition of HIV1 reverse transcriptase G190A mutant expressed in Escherichia coli BL21 (DE3) using [alpha-32P]dATP after 30 mins by liquid scintillation counting
[24] = test system: Human alphaherpesvirus 3; assay: Antiviral activity against Varicella-zoster virus; assay type: functional, organism-based
[25] = Solubility of the compound in 10% DMSO up to 50 uM; assay type: physicochemical
[26] = biological target: Human immunodeficiency virus type 1 reverse transcriptase (Human immunodeficiency virus 1) (UniProt Q72547); assay: as §1
[27] = test system: Human immunodeficiency virus 1; assay: Ratio of IC50 for HIV1 wild type reverse transcriptase to IC50 for HIV1 reverse transcriptase L100I mutant

O=C(OC1C=CC(n2ccc(=O)n(C(=O)c3ccccc3)c2=O)C1)c1ccccc1 (racemic)
CC50 at 72 h [1]: ≥ 250 µM | IC50 [2]: > 100 µM | EC50 [3]: > 50 µM

Cc1cc(=O)n(C(=O)c2ccccc2)c(=O)n1C1C=CC(OC(=O)c2ccccc2)C1 (racemic)
CC50 at 72 h [1]: 191 µM | IC50 [2]: > 100 µM | EC50 [3]: > 50 µM

O=C(OC1C=CC(n2ccc(=O)n(Cc3ccccc3)c2=O)C1)c1ccccc1 (racemic)
Activity [4]: inactive | IC50 [5]: > 50 µM | Activity [6]: inactive | Activity [7]: inactive | IC50 [8]: 33.6 µM | IC50 [9]: > 50 µM | Activity [10]: inactive | CC50 at 72 h [1]: > 25 µM | Activity [11]: inactive | Activity [12]: inactive | IC50 [2]: 13.4 µM | Activity [13]: inactive | Activity [14]: inactive | EC50 [3]: > 10 µM | IC50 [15]: 1.2 µM | IC50 [16]: > 50 µM | Activity [17]: inactive | Activity [18]: inactive | Activity [19]: inactive | Activity [20]: inactive | Activity [21]: inactive | Activity [22]: inactive | IC50 [23]: > 50 µM | Activity [24]: inactive

Cc1ccc(Cn2c(=O)ccn(C3C=CC(OC(=O)c4ccccc4)C3)c2=O)cc1 (racemic)
Activity [4]: inactive | IC50 [5]: > 50 µM | Activity [6]: inactive | Activity [7]: inactive | IC50 [8]: 55.4 µM | IC50 [9]: > 50 µM | Activity [10]: inactive | CC50 at 72 h [1]: > 25 µM | Activity [11]: inactive | Activity [12]: inactive | IC50 [2]: 18.7 µM | Activity [13]: inactive | Activity [14]: inactive | EC50 [3]: > 10 µM | IC50 [15]: 2.4 µM | IC50 [16]: > 50 µM | Activity [17]: inactive | Activity [18]: inactive | Activity [19]: inactive | Activity [20]: inactive | Activity [21]: inactive | Activity [22]: inactive | IC50 [23]: > 50 µM | Activity [24]: inactive

Cc1ccc(Cn2c(=O)ccn(C3C=CC(OC(=O)c4ccccc4)C3)c2=O)c(C)c1 (racemic)
CC50 at 72 h [1]: 31 µM | IC50 [2]: > 50 µM | EC50 [3]: > 50 µM

Cc1cc(C)cc(Cn2c(=O)ccn(C3C=CC(OC(=O)c4ccccc4)C3)c2=O)c1 (racemic)
Activity [4]: inactive | IC50 [5]: > 50 µM | solubility [25]: soluble | Activity [6]: inactive | Activity [7]: inactive | IC50 [8]: > 50 µM | IC50 [9]: > 50 µM | Activity [10]: inactive | CC50 at 72 h [1]: 40 µM | Activity [11]: inactive | Activity [12]: inactive | inhibition [26]: Dose-dependent effect | IC50 [2]: > 50 µM | Activity [13]: inactive | Activity [14]: inactive | EC50 [3]: > 10 µM | IC50 [15]: 11.1 µM | IC50 [16]: > 50 µM | Activity [17]: inactive | Activity [18]: inactive | Ratio IC50 [27]: 10 | Activity [19]: inactive | Activity [20]: inactive | Activity [21]: inactive | Activity [22]: inactive | IC50 [23]: > 50 µM | Activity [24]: inactive

O=C(OC1C=CC(n2ccc(=O)n(Cc3cc(F)cc(F)c3)c2=O)C1)c1ccccc1 (racemic)
CC50 at 72 h [1]: 32 µM | IC50 [2]: > 50 µM | EC50 [3]: > 10 µM

Cc1cc(=O)n(Cc2ccccc2)c(=O)n1C1C=CC(OC(=O)c2ccccc2)C1 (racemic)
CC50 at 72 h [1]: 34 µM | IC50 [2]: > 50 µM | EC50 [3]: > 10 µM

Cc1ccc(Cn2c(=O)cc(C)n(C3C=CC(OC(=O)c4ccccc4)C3)c2=O)cc1 (racemic)
CC50 at 72 h [1]: 20 µM | IC50 [2]: > 50 µM | EC50 [3]: > 10 µM

Cc1cc(C)cc(Cn2c(=O)cc(C)n(C3C=CC(OC(=O)c4ccccc4)C3)c2=O)c1 (racemic)
CC50 at 72 h [1]: 25 µM | IC50 [2]: > 50 µM | EC50 [3]: > 10 µM

O=C(OC1C=CC(n2ccc(=O)[nH]c2=O)C1)c1ccccc1 (racemic)
CC50 at 72 h [1]: > 250 µM | IC50 [2]: > 100 µM | EC50 [3]: > 250 µM

Cc1cc(=O)[nH]c(=O)n1C1C=CC(OC(=O)c2ccccc2)C1 (racemic)
CC50 at 72 h [1]: > 250 µM | IC50 [2]: > 100 µM | EC50 [3]: > 50 µM

O=c1ccn(C2C=CC(O)C2)c(=O)n1Cc1ccccc1 (racemic)
CC50 at 72 h [1]: > 250 µM | IC50 [2]: > 100 µM

CC(C)Nc1cccnc1N1CCN(C(=O)c2cc3cc(NS(C)(=O)=O)ccc3[nH]2)CC1 [DELAVIRDINE]
CC50 at 72 h [1]: > 25 µM | EC50 [3]: 0.11 µM

Cc1ccnc2c1NC(=O)c1cccnc1N2C1CC1 [NEVIRAPINE]
CC50 at 72 h [1]: > 25 µM | EC50 [3]: 0.024 µM
